The record followed here is patent publication US20250353864A1, “INDAZOLE CONTAINING MACROCYCLES AND THEIR USE” (BLOSSOMHILL THERAPEUTICS, INC., priority 2022, published 2025).

Some results are limits rather than exact numbers.

Common to all, as to format: biochemical
One experiment deals with EGFR L858R/T790M mutant (Homo sapiens (Human), UniProt P00533, L858R/T790M). Briefly: HotSpot radiometric kinase assay, EGFR L858R/T790M mutant. Conditions: 10 μM ATP. The method, boiled down:
(§1)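 Radiometric filter-binding read-out: incorporated 33P was retained on P81 ion-exchange paper after washing away unbound phosphate. Reactions ran 120 min at room temperature with 10 μM final ATP, following ~20 min compound preincubation in Hepes pH 7.5 buffer containing 1% DMSO. IC50 from fitted curves.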

The next experiment deals with EGFR Δ746-750 mutant (Homo sapiens (Human), UniProt P00533, DEL746-750). Briefly: HotSpot radiometric kinase assay, EGFR Δ746-750 mutant. The settings on record: 10 μM ATP. The method, boiled down:
as §1

Another experiment deals with EGFR L858R mutant (Homo sapiens (Human), UniProt P00533, L858R). Briefly: HotSpot radiometric kinase assay, EGFR L858R mutant. The settings on record: 10 μM ATP. An outline of the steps: as §1
Sequence of EGFR L858R mutant (P00533 25-1210 L858R): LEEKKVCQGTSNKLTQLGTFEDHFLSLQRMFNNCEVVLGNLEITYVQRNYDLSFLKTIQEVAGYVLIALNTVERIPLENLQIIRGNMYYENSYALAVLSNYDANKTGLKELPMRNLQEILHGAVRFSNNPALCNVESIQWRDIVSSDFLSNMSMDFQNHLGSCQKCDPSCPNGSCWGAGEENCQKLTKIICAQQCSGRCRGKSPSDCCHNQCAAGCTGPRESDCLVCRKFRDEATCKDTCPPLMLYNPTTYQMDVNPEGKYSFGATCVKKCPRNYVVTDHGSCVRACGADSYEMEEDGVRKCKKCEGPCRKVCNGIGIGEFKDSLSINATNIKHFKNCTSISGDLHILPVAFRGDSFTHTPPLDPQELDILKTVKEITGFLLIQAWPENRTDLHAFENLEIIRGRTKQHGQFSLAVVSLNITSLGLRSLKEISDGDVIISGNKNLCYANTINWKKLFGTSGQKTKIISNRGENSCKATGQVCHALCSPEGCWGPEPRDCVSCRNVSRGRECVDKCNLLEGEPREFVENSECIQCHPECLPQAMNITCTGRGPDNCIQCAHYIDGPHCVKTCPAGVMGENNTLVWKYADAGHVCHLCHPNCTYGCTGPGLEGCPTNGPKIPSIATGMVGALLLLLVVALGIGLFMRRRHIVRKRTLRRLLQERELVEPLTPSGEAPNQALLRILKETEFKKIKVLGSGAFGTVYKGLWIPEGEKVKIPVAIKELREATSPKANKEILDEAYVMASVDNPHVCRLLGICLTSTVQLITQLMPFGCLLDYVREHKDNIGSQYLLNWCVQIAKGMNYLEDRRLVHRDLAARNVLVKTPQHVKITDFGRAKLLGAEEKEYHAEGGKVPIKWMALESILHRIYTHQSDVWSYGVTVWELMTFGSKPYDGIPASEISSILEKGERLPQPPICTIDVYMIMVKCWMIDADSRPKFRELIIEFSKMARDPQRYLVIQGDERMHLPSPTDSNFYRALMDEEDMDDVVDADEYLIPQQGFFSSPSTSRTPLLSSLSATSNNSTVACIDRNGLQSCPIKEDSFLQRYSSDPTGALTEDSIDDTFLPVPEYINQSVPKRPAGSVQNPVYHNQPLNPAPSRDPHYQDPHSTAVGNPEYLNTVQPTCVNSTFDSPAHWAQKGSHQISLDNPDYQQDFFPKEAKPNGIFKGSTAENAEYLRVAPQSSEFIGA
The target in another experiment is EGFR WT (Homo sapiens (Human), UniProt P00533). Briefly: HotSpot radiometric kinase assay (Reaction Biology), EGFR WT. The settings on record: 10 μM ATP. An outline of the steps:
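Enzyme and substrate pairs were exposed to inhibitor for roughly 20 min before radiolabelled ATP (10 μM final) was introduced; the reaction proceeded 120 min at ambient temperature in pH 7.5 buffer with 1% DMSO, and phosphorylated product was captured on P81 filters for IC50 determination.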

Another experiment addresses EGFR (D770_N771insNPG) (Homo sapiens (Human), UniProt P00533, INS770NPG). The experiment can be described thus: HotSpot radiometric kinase assay, EGFR (D770_N771insNPG). The settings on record: 10 μM ATP, read-out: EGFR (Δ770_N771insNPG) IC50. An outline of the steps: as §1
In experiment [1] the target is EGFR L858R/T790M/C797S mutant (Homo sapiens (Human), UniProt P00533, C797S/L858R/T790M). The experiment can be described thus: HotSpot radiometric kinase assay, EGFR L858R/T790M/C797S mutant. The settings on record: 10 μM ATP. The method, boiled down:
as §1

Experiment [2] addresses EGFR Δ746-750/C797S mutant (Homo sapiens (Human), UniProt P00533, C797S/DEL746-750). Briefly: HotSpot radiometric kinase assay, EGFR Δ746-750/C797S mutant. Conditions: 10 μM ATP. An outline of the steps:
as §1

Sequence of EGFR Δ746-750 mutant (P00533 other isoform, or with tags, fused parts or gaps del 1-668/del 746-750 limits assumed): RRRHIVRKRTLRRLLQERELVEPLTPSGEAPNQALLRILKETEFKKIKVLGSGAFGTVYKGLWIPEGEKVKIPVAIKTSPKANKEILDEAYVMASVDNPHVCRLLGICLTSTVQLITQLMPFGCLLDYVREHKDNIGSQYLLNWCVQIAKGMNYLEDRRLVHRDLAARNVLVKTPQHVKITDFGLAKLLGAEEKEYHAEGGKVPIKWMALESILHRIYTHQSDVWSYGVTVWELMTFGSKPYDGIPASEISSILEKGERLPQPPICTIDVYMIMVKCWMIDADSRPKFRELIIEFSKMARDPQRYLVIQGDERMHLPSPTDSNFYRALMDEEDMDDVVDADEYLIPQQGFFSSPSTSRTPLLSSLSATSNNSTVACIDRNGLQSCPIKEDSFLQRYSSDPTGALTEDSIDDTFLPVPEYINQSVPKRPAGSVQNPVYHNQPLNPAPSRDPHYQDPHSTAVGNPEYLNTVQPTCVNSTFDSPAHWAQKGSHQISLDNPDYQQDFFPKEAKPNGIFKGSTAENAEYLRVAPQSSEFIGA
Sequence of EGFR (D770_N771insNPG) (P00533 other isoform, or with tags, fused parts or gaps del 1-668/ins NPG behind 770 limits assumed): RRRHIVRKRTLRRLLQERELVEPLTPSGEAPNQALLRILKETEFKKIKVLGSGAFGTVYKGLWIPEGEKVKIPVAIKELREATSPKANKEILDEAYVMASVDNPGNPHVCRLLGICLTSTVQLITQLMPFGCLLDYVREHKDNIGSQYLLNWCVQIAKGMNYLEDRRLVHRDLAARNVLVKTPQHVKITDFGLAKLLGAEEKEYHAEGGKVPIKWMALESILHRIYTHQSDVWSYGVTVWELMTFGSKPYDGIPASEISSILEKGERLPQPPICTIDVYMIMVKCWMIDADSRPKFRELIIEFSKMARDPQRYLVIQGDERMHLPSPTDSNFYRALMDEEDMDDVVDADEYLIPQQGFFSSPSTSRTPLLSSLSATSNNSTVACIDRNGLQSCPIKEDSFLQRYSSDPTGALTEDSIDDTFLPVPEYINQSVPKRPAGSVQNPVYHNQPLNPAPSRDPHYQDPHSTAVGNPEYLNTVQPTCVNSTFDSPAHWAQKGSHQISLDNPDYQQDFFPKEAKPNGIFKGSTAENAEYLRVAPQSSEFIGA
Sequence of EGFR WT (P00533 25-1210): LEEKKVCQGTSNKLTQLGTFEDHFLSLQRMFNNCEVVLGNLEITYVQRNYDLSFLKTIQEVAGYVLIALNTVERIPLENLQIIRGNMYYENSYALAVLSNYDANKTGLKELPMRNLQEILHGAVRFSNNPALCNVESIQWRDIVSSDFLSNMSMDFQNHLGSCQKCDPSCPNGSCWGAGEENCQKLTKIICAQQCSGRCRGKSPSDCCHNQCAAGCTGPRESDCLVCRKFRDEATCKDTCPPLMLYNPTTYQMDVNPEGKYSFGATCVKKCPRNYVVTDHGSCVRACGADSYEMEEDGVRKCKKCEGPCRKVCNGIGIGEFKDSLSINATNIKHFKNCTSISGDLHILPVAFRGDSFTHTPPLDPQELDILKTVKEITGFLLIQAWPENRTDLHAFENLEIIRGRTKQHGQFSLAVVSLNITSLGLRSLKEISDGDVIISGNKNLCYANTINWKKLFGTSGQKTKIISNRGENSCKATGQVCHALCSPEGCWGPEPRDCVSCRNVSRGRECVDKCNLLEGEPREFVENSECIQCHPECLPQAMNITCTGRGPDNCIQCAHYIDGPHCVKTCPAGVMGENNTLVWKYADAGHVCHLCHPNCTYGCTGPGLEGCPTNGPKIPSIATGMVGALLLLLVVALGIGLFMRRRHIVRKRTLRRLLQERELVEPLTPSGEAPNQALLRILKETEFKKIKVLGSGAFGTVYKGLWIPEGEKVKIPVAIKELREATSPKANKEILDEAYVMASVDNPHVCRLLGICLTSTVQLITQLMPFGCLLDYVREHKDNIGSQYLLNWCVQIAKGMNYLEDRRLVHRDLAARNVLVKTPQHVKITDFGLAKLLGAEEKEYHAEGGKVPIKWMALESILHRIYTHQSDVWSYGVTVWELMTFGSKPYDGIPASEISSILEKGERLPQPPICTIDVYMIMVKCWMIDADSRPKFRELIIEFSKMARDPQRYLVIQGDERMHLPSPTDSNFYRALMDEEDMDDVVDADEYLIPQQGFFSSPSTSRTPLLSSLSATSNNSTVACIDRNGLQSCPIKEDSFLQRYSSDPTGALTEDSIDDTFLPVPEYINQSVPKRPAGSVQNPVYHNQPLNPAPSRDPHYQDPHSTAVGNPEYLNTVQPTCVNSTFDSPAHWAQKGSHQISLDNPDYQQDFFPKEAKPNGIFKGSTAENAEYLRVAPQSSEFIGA
Sequence of EGFR L858R/T790M/C797S mutant (P00533 25-1210 T790M/C797S/L858R): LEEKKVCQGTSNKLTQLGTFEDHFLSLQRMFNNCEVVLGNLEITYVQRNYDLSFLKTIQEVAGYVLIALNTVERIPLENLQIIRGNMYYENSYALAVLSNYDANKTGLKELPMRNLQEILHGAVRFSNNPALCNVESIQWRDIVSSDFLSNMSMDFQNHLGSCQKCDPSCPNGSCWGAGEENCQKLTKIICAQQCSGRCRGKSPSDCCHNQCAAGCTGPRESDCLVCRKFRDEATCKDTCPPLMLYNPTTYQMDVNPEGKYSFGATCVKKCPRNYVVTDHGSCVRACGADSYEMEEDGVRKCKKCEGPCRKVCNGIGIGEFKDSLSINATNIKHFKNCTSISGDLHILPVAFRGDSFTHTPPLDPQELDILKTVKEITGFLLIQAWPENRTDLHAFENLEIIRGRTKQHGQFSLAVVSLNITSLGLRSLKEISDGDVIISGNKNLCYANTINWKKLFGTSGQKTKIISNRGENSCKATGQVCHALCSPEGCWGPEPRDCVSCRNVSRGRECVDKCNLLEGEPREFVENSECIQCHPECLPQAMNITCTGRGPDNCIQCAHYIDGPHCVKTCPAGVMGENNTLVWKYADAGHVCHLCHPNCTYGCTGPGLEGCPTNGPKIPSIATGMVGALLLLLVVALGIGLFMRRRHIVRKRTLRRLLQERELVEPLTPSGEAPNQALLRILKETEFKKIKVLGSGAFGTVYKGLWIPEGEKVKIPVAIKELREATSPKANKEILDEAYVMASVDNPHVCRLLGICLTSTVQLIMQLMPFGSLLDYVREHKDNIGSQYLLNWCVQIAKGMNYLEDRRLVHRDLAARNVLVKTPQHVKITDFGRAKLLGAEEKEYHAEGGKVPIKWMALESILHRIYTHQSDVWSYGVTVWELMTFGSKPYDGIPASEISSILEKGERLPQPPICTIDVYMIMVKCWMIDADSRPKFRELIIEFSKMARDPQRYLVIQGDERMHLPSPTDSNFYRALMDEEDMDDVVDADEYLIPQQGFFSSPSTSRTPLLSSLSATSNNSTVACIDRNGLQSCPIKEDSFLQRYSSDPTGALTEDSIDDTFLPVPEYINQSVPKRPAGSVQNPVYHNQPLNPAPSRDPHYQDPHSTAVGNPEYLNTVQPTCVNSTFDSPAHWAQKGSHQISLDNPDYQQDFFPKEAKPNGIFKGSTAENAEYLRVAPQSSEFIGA

The IC50 is the concentration that inhibits the measured activity by half. For the compound `Cc1c2c(nn1CCO)CNC[C@H](C)Oc1c(cnn1C)-c1ccc3[nH]nc(c3c1)/C=C/2` [Example 49, 2-[(10S,17E)-8,10,16-trimethyl-2,8,10,11,12,13-hexahydro-15H-3,5-ethenotripyrazolo[3,4-f:3′,4′-j:4″,3″- n][1,4]oxazacyclopentadecin-15-yl]ethan-1-ol], the half-inhibitory concentration (IC50) on EGFR L858R/T790M mutant is 126 nM; against EGFR Δ746-750 mutant, 617 nM; against EGFR L858R mutant it was 862 nM; against EGFR WT, greater than 1000 nM; on EGFR (D770_N771insNPG) it was greater than 1000 nM; in experiment [1], 84.4 nM. Moreover, half-maximal inhibition in experiment [2] (IC50) was put at 1040 nM.

For the compound `CN1CCN(c2ccc3c(c2)OC2CCN(CCOc4c(cnn4C)-c4ccc5[nH]nc(c5c4)/C=C/3)C2=O)CC1` (stereo in doubt) [Example 131], the IC50 was 0.57 nM at EGFR L858R/T790M mutant; 1.65 nM at EGFR Δ746-750 mutant; 4.02 nM against EGFR L858R mutant; 17.7 nM against EGFR WT; 6.79 nM at EGFR (D770_N771insNPG); 1.9 nM in experiment [1]. In experiment [2], this compound yielded an IC50 of 4.09 nM.

As for `C[C@H]1CN(C)Cc2c(c(OC3CCNCC3)nn2C)/C=C/c2n[nH]c3ccc(cc23)-c2cnn(C)c2O1` [Example 136, (10S,17E)-8,10,12,14-tetramethyl-16-[(piperidin-4-yl)oxy]-2,10,11,12,13,14-hexahydro-8H-3,5-ethenotripyrazolo[3,4-f:3′,4′-j:4″,3″-n][1,4]oxazacyclopentadecine], the IC50 against EGFR L858R/T790M mutant worked out at 0.8 nM; against EGFR Δ746-750 mutant it was 15.2 nM; against EGFR L858R mutant, 14.6 nM; at EGFR WT, 103 nM; on EGFR (D770_N771insNPG), 334 nM; in experiment [1] it was 1.54 nM. This compound displayed an IC50 in experiment [2] of 12.1 nM.

Consider `Cc1nn([C@H]2C[C@@H](N(C)CCN(C)C)C2)c2c1/C=C/c1n[nH]c3ccc(cc13)-c1cnn(C)c1OCCCO2` [Example 103, N^1-{(1s,3s)-3-[(17E)-8,16-dimethyl-2,8,11,12-tetrahydro-10H,14H-3,5-etheno[1,5]dioxacyclopentadecino[10,11-c:15,14-c′:6,7-c″]tripyrazol-14-yl]cyclobutyl}-N^1,N^2,N^2-trimethylethane-1,2-diamine], for which the IC50 against EGFR L858R/T790M mutant turned out to be 11.5 nM; against EGFR Δ746-750 mutant it was 105 nM; against EGFR L858R mutant, 103 nM; against EGFR WT, 358 nM; on EGFR (D770_N771insNPG), 344 nM; in experiment [1] it was 40.4 nM. The compound also showed an IC50 in experiment [2] of 171 nM.

As for `CC(C)Oc1nn(CCO)c2c1/C=C/c1n[nH]c3ccc(cc13)-c1cnn(C)c1O[C@H](C)[C@H]1CCCN1C2` [Example 253, 2-[(8aR,9R,19E)-9,11-dimethyl-1-[(propan-2-yl)oxy]-7,8,8a,9,11,17-hexahydro-6H-14,16-ethenotripyrazolo[3,4-f:3′,4′-j:4″,3″-n]pyrrolo[2,1-c][1,4]oxazacyclopentadecin-3(4H)-yl]ethan-1-ol], the 50% inhibitory concentration (IC50) on EGFR L858R/T790M mutant was determined as 2.55 nM; at EGFR Δ746-750 mutant, 0.75 nM; against EGFR L858R mutant, 1.66 nM; against EGFR WT, 1.63 nM; at EGFR (D770_N771insNPG), 3.21 nM; in experiment [1] it was 5.27 nM. This compound had a concentration for half-maximal inhibition (IC50) in experiment [2] of 1.98 nM.

Regarding `CCOc1nn(CCO)c2c1/C=C/c1n[nH]c3ccc(cc13)-c1c(C)nn(C)c1O[C@H](C)CN(C1CC1)C2` [Example 204], the 50% inhibitory concentration (IC50) on EGFR L858R/T790M mutant was 1.77 nM; at EGFR Δ746-750 mutant, 1.85 nM; against EGFR L858R mutant it was 5.5 nM; against EGFR WT it was 5.49 nM; on EGFR (D770_N771insNPG) it was 20.1 nM; in experiment [1], 2.53 nM. This compound also returned an IC50 in experiment [2] of 1.93 nM.

As for `C[C@H]1CN(C)Cc2c(c(O[C@H]3CCN(S(C)(=O)=O)C3)nn2CCO)/C=C/c2n[nH]c3ccc(cc23)-c2cnn(C)c2O1` [Example 182, 2-[(10S,17E)-16-{[(3S)-1-(methanesulfonyl)pyrrolidin-3-yl]oxy}-8,10,12-trimethyl-2,8,10,11,12,13-hexahydro-14H-3,5-ethenotripyrazolo[3,4-f:3′,4′-j:4″,3″- n][1,4]oxazacyclopentadecin-14-yl]ethan-1-ol], the IC50 against EGFR L858R/T790M mutant amounted to 0.54 nM; on EGFR Δ746-750 mutant, 24 nM; at EGFR L858R mutant, 24.7 nM; against EGFR WT it was 139 nM; at EGFR (D770_N771insNPG), 300 nM; in experiment [1], 1.37 nM. The compound further returned an IC50 in experiment [2] of 6.6 nM.

With `C[C@H]1CN(C)Cc2c(c(OC3CN(S(C)(=O)=O)C3)nn2CCO)/C=C/c2n[nH]c3ccc(cc23)-c2cnn(C)c2O1` [Example 221, 2-[(10S,17E)-16-{[1-(methanesulfonyl)azetidin-3-yl]oxy}-8,10,12-trimethyl-2,8,10,11,12,13-hexahydro-14H-3,5-ethenotripyrazolo[3,4-f:3′,4′-j:4″,3″-n][1,4]oxazacyclopentadecin-14-yl]ethan-1-ol], the IC50 on EGFR L858R/T790M mutant was found to be 0.21 nM; against EGFR Δ746-750 mutant it was 0.55 nM; at EGFR L858R mutant, 0.97 nM; against EGFR WT it was 4.14 nM; at EGFR (D770_N771insNPG), 10.3 nM; in experiment [1] it was 0.14 nM. Moreover, half-maximal inhibition in experiment [2] (IC50) required 0.35 nM.

With `C[C@H]1CN(C)Cc2c(c(CN(C)C)nn2CCO)/C=C/c2n[nH]c3ccc(cc23)-c2cnn(C)c2O1` [Ex. 266, 2-{(10S,17E)-16-[(dimethylamino)methyl]-8,10,12-trimethyl-2,8,10,11,12,13-hexahydro-14H-3,5-ethenotripyrazolo[3,4-f:3′,4′-j:4″,3″-n][1,4]oxazacyclopentadecin-14-yl}ethan-1-ol], the concentration for half-maximal inhibition (IC50) against EGFR L858R/T790M mutant is 282 nM; on EGFR Δ746-750 mutant it was 971 nM; at EGFR L858R mutant it was greater than 1000 nM; against EGFR WT, greater than 1000 nM; on EGFR (D770_N771insNPG) it was greater than 1000 nM; in experiment [1], 60.4 nM. In experiment [2], the IC50 turned out to be 577 nM.

As to `Cc1nn(C)c2c1/C=C/c1n[nH]c3ccc(cc13)-c1cnn(C)c1CN(C)[C@@H](C)CO2` [Example 106, (11S,17E)-8,10,11,14,16-pentamethyl-2,9,10,11,12,14-hexahydro-8H-3,5-ethenotripyrazolo[3,4-f:4′,3′-j:4″,3″-n][1,4]oxazacyclopentadecine], the IC50 on EGFR L858R/T790M mutant was 2.49 nM; against EGFR Δ746-750 mutant, 57.6 nM; against EGFR L858R mutant, 34.8 nM; at EGFR WT, 107 nM; on EGFR (D770_N771insNPG), 111 nM; in experiment [1], 10.8 nM. The compound further came in with an IC50 in experiment [2] of 68.5 nM.

Turning to `CN(C)Cc1ccc2c(c1)O[C@@H]1CCN(CCOc3c(cnn3C)-c3ccc4[nH]nc(c4c3)/C=C/2)C1=O` [Example 94, (10R,16E)-13-[(dimethylamino)methyl]-3-methyl-3,5,6,9,10,19-hexahydro-8H-20,22-etheno-7,10-methanodipyrazolo[3,4-i:4′,3′-m][1,8,5]benzodioxazacyclooctadecin-25-one], the IC50 was 0.82 nM against EGFR L858R/T790M mutant; 17.6 nM on EGFR Δ746-750 mutant; 9.99 nM against EGFR L858R mutant; 44.1 nM on EGFR WT; 17.2 nM on EGFR (D770_N771insNPG); 5.75 nM in experiment [1]. The same compound registered an IC50 in experiment [2] of 14.1 nM.

For `CCN1CCOc2c(c(C)nn2C)/C=C/c2n[nH]c3ccc(cc23)-c2cnn(C)c2C1` [Example 111, (17E)-10-ethyl-8,14,16-trimethyl-2,9,10,11,12,14-hexahydro-8H-3,5-ethenotripyrazolo[3,4-f:4′,3′-j:4″,3″-n][1,4]oxazacyclopentadecine], the IC50 against EGFR L858R/T790M mutant stood at 0.39 nM; on EGFR Δ746-750 mutant, 3.29 nM; against EGFR L858R mutant, 8.04 nM; at EGFR WT, 63.3 nM; on EGFR (D770_N771insNPG) it was 16.8 nM; in experiment [1] it was 1.91 nM. This compound also had an IC50 in experiment [2] of 9.18 nM.

Consider `Cc1nn([C@H]2CN(C)C[C@@H]2O)c2c1/C=C/c1n[nH]c3ccc(cc13)-c1cnn(C)c1OCCCO2` (racemic) [Example 75, (rac)-4-[(17E)-8,16-dimethyl-2,8,11,12-tetrahydro-10H,14H-3,5-etheno[1,5]dioxacyclopentadecino[10,11-c:15,14-c′:6,7-c″]tripyrazol-14-yl]-1-methylpyrrolidin-3-ol], for which the half-maximal inhibitory concentration (IC50) at EGFR L858R/T790M mutant was found to be 17.5 nM; against EGFR Δ746-750 mutant, 59.7 nM; at EGFR L858R mutant, 55.9 nM; against EGFR WT, 295 nM; on EGFR (D770_N771insNPG), 84.3 nM; in experiment [1] it was 21.2 nM. Besides, in experiment [2], the IC50 was 28.5 nM.

In the case of `Cc1c2c(nn1CCN1CCN(C)CC1)CN(C)C[C@H](C)Oc1c(cnn1C)-c1ccc3[nH]nc(c3c1)/C=C/2` [Example 90, (10S,17E)-8,10,12,16-tetramethyl-15-[2-(4-methylpiperazin-1-yl)ethyl]-2,10,11,12,13,15-hexahydro-8H-3,5-ethenotripyrazolo[3,4-f:3′,4′-j:4″,3″-n][1,4]oxazacyclopentadecine], the IC50 at EGFR L858R/T790M mutant came to 0.06 nM; against EGFR Δ746-750 mutant it was 11.6 nM; at EGFR L858R mutant it was 1.02 nM; on EGFR WT, 17.1 nM; at EGFR (D770_N771insNPG), 81.8 nM; in experiment [1], 0.81 nM. For the same compound, half-maximal inhibition in experiment [2] (IC50) was put at 4.65 nM.
